Bridge positions count the residues as written; N and C are the ends. Peptide text beside a SMILES is read from it.
Tests used:
[1] = system: human EDTA-anti-coagulated blood diluted 1∶10; test: TNF release assay in stimulated diluted whole blood (ELISA); type: cell-based

In the case of `CC[C@H](C)[C@@H]1NC(=O)[C@@H]2CSSC[C@H](NC(=O)[C@H](CCCNC(=N)N)NC(=O)[C@@H]3CSSC[C@H](NC1=O)C(=O)N[C@@H]([C@@H](C)O)C(=O)N[C@@H](CCCNC(=N)N)C(=O)NCC(=O)N[C@@H](Cc1ccccc1)C(=O)N3)C(=O)N[C@@H](CC(C)C)C(=O)N[C@H]1CSSC[C@H](NC(=O)[C@H](C(C)C)NC(=O)CNC(=O)[C@H](CCCNC(=N)N)NC(=O)[C@H](CCCNC(=N)N)NC1=O)C(=O)N[C@@H](CCCNC(=N)N)C(=O)N2` [RTD-1] (cyclo(GFCRCLCRRGVCRCICTR); disulfide 3-16, 5-14, 7-12), the TNF-release inhibition [1] is reported as 70–80%, the “reduction of TNF levels” value [1] is reported as 46–93% and the “clinical and injection site effects” value (adult chimpanzees; escalating i.v. doses (0.2 to 3.0 mg/kg over 14 days), two animals) is reported as “No clinical or injection site effects were observed”. The “comprehensive metabolic panels and complete blood counts with differential” value (adult chimpanzees; escalating i.v. doses, all time points incl. days 21, 28, 60) was “no abnormalities” and the “anti-RTD-1 antibody (dot blot immunoassay)” value (adult chimpanzees; serum samples after escalating i.v. doses, two animals) was “No anti-RTD-1 antibody was detected”.

— publication PMC3516535, “Rhesus Macaque Theta Defensins Suppress Inflammatory Cytokines and Enhance Survival in Mouse Models of Bacteremic Sepsis” (PLoS ONE, 2012)
